Measured values as given in a melting point compilation (Tetko et al.; mined from patent text by program, amines drawn as free bases though some values may be those of a salt).

First: COC(=O)c1ccc(Cl)cc1-n1c(CCl)nc2ccccc2c1=O
Second: COC(=O)c1nc(CN=[N+]=[N-])n2c1CN=C(c1ccccc1Cl)c1cc(Cl)ccc1-2
The melting point of the first is lower: 155 to 157 °C for the first, 187 to 189 °C for the second.

Going from `CC(Oc1ccc2c(c1)OCC(Cc1ccccn1)C2O)c1ccc2ccccc2n1` (stereo unspecified) to `ON=C(c1cccs1)c1cccc2nc(N[C@@H]3CCc4ccccc43)ccc12`, the melting point rises from 73 °C to 180 °C.

Compared with `CCCCCCCCCCCCCOCCCCO`, `OCCc1cc(C(O)CNCCCCCOCCCCc2ccccc2)ccc1O` (stereo unspecified) is higher in melting point: 26 to 29 °C for the first, 65 to 67 °C for the second.

First: CC(C)(C)ON=C1CCC(NC(=O)N2CCn3c(Cl)c(-c4cccc(F)c4)c(C(N)=O)c3C2)CC1 (stereo unspecified)
Second: COc1ccc(C2CCN(C(=O)C(N)=O)CC2)cc1CC1CCCC1
The melting point of the first is higher: 195 to 198 °C for the first, 117 to 118 °C for the second.

Compared with `O=C(Nc1cccc(-c2ncnc3[nH]c(-c4ccncc4)cc23)c1)c1cccc(C(F)(F)F)c1`, `O=C(Nc1ccc(-n2nc(C(F)(F)F)cc2C(F)(F)F)cc1)c1cccc(CO)c1` is lower in melting point: over 280 °C for the first, 160 to 162 °C for the second.

First: CCOC(=O)CO/N=C(\C(=O)Sc1nc2ccccc2s1)c1cc[nH]n1
Second: CCOC(=Nc1nc(C)cc(OC)n1)NS(=O)(=O)c1ccccc1OC(F)F
The melting point of the first is lower: 112 to 114 °C for the first, 131 to 133 °C for the second.

First: C#CC(C)NCC(O)COc1ccccc1C=Cc1nnc(C)s1 (stereo unspecified)
Second: COC=C(C(=O)OC)c1ccccc1Oc1ncnc(F)c1Cl
The melting point of the first is higher: 143 to 145 °C for the first, 102 °C for the second.

Compared with `CCOc1ccc(Nc2ccc(Nc3ccc(OCC)cc3)c3c2C(=O)c2c(Nc4ccc(OCC)cc4)ccc(Nc4ccc(OCC)cc4)c2C3=O)cc1`, `Cc1c(NC(=O)c2ccc(-c3ccc(OC(F)(F)F)cc3)cc2)ccc2cc(CN3CCCC3)cnc12` is higher in melting point: 173 to 175 °C for the first, 200 to 202 °C for the second.

First: COc1c(O)cc2c(c1Sc1ccccc1)CCN(C)CC2
Second: O=C(c1cc(=O)c2cc(O)ccc2[nH]1)N1CCC(COc2ccccc2)CC1
The melting point of the first is higher: 161 to 162 °C for the first, 130 °C for the second.

Compared with `O=C1C(=Cc2ccncc2)C(=O)c2ccccc21`, `O=C1c2ccccc2C(=O)c2sc(-c3ccc(F)cc3)nc21` is higher in melting point: 152 to 157 °C for the first, over 260 °C for the second.

First: Cc1nc(N2CCN(Cc3ccc(OC(F)(F)F)cc3)C2=O)sc1C(N)=O
Second: FC(F)(F)Oc1ccc(-c2cncc(Cl)n2)cc1
The melting point of the first is higher: 185 to 187 °C for the first, 58 to 60 °C for the second.

First: C[C@H]1[C@H](O)C2(CC2)C(=O)N1c1ccc(C#N)c(C(F)(F)F)c1
Second: CCN1CCC2(c3cccc(OC)c3)Cc3[nH]c(C(N)=O)c(C)c3CC2C1 (stereo unspecified)
The melting point of the first is lower: 109 to 110 °C for the first, 176 to 178 °C for the second.

First: CC(C)(C)OC(=O)NC(CF)C(F)CN1C(=O)c2ccccc2C1=O (stereo unspecified)
Second: CCOC(=O)C1=C(C)NC(CO)=C(C(=O)OCC)C1c1ccccc1Cl (stereo unspecified)
The melting point of the first is higher: 152 to 153 °C for the first, 143 °C for the second.

First: COC(=O)C(=CNC1CC1)C(=O)C=Cc1ccc(OC)cc1
Second: COc1ccc(N(C)CC(=O)O)c(C(=O)O)c1
The melting point of the first is lower: 125 to 127 °C for the first, 196 °C for the second.

First: Oc1c(-c2ccccc2)cc(C2c3ccccc3-c3ccccc32)cc1-c1ccccc1
Second: O=C1OC2(C=Cc3ccccc3O2)c2ccccc21 (stereo unspecified)
The melting point of the first is higher: 144 to 145 °C for the first, 113 to 114 °C for the second.

First: CC1=NN(c2ccc(Cl)cc2)C(c2ccc(N)c(C)c2)C1 (stereo unspecified)
Second: Clc1ccc(-c2ccc3nncn3n2)cc1
The melting point of the first is lower: 180 to 184 °C for the first, 216 to 218 °C for the second.

Compared with `COC(=O)c1ccc(CNC(=O)c2ccc(C(=O)NO)s2)cc1`, `Cn1c(CC#N)ccc1C(=O)c1ccc(Br)cc1` is lower in melting point: 156 to 166 °C for the first, 139 to 141 °C for the second.

First: Cn1c(=O)c2c(ncn2CCC(O)N2CCN(C(=O)c3ccco3)CC2)n(C)c1=O (stereo unspecified)
Second: CS(=O)(=O)Nc1ccc2c(c1)C(=NO)CC1(CCN(CCc3ccccc3)CC1)O2
The melting point of the first is higher: 161 to 163 °C for the first, 95 to 99 °C for the second.

First: COc1ccc(C2CCN(C(N)=O)CC2)cc1CC1CCCC1
Second: O=c1cc(C2(Br)CCCCC2)oc2c(CBr)cccc12
The melting point of the first is higher: 168 to 169 °C for the first, 134 to 135 °C for the second.

First: Clc1ccccc1C1=NOCCS1
Second: O=C1CCc2ccccc2CN1CO
The melting point of the first is lower: 51 to 52 °C for the first, 109 to 110 °C for the second.

First: COc1cccc(NC(=S)NC(NC(=O)c2ccc(C)cc2)C(F)(F)F)c1 (stereo unspecified)
Second: CC(=O)c1ccc2c(c1)[C@@H](NC(=O)Nc1ccccc1)[C@H](O)C(C)(C)O2 (relative stereo)
The melting point of the first is lower: 206 to 208 °C for the first, 210 to 211 °C for the second.

Compared with `C=CCC(=NO)C(C)=NNc1c(Cl)cc(C(F)(F)F)cc1Cl`, `CCn1cc(C(=O)O)c(=O)c2ccc(Cl)c(C)c21` is higher in melting point: 71 to 73 °C for the first, 221 to 222 °C for the second.

Compared with `CC(C)c1c(Oc2ccccc2)n(COCc2ccccc2)c(=O)[nH]c1=O`, `COc1cc(CCCC2SC(=O)NC2=O)ccc1OCc1coc(-c2ccccc2)n1` (stereo unspecified) is higher in melting point: 118 °C for the first, 131 to 132 °C for the second.

First: CS(=O)(=O)c1ccc(-c2nn(Cc3ccc(F)cc3F)c(=O)cc2-c2ccc(Cl)cc2)cc1
Second: OCc1ccc(-c2ccc3nnn(Cc4ccc5ncccc5c4)c3n2)cc1F
The melting point of the first is lower: 174 °C for the first, 202 to 204 °C for the second.

First: CCCCNC(=O)NS(=O)(=O)c1ccc(CCNC(=O)N2Cc3ccccc3C2=O)cc1
Second: COc1ccc(/C(=C\C=C\C(=O)NCCCCc2cccnc2)c2cccnc2)cc1
The melting point of the first is higher: 188 to 190 °C for the first, 108 to 110 °C for the second.

First: Cc1noc(-c2cn(-c3cccc(Br)c3)cn2)n1
Second: Cc1nc2c(N)nc3ccccc3c2n1Cc1cc(-c2ccc(F)cc2)no1
The melting point of the first is lower: 200 to 202 °C for the first, 294 to 296 °C for the second.

Compared with `O=C(O)CCCSc1ccc(C(=O)O)cn1`, `O=CC(CC(=O)O)NC(=O)C1CCCN2C(=O)CCC(NC(=O)CCc3ccccc3)C(=O)N12` (stereo unspecified) is lower in melting point: 185 °C for the first, 96 to 97 °C for the second.

Compared with `COc1cc2c(Nc3ccc(C)c(OC(C)=O)c3)ncnc2cc1OCc1cccnc1`, `CC(=O)c1c(-c2ccncc2)[nH]c(-c2ccnc3ccccc23)c1C` is higher in melting point: 113 to 115 °C for the first, 237 to 239 °C for the second.

First: COc1ccc(C2(c3ccc(OC)cc3)CCN(C[C@H]3CN(C)[C@@H]4Cc5c(Br)[nH]c6cccc(c56)[C@@]4(OC)C3)CC2)cc1
Second: CCc1c2c(c(CC)c3ccc(OC)cc13)-c1ccc(OC)cc1C2
The melting point of the first is higher: 167 to 172 °C for the first, 155 to 157 °C for the second.

Compared with `COC(=O)c1cccn1-c1cc2[nH]c(=O)c(=O)[nH]c2cc1Cl`, `Cc1ccccc1-c1cc(=O)c2cc(O)ccc2o1` is lower in melting point: over 260 °C for the first, 180 °C for the second.

First: O=C1CCC(O)=C1Cc1ccc2ccccc2c1
Second: C1=C(c2ccccc2)CCN(CCCCc2cnc3ccccc3c2)C1
The melting point of the first is higher: 230 to 231 °C for the first, 92.8 to 93.9 °C for the second.

First: CCCCSC1(SCCCC)CCC2C3CCC4=CC(=O)C=CC4(C)C3(F)C(O)CC21C (stereo unspecified)
Second: CC1(C)CC(=C(c2ccc(O)cc2)c2ccc(OCCOCCO)cc2)CC(C)(C)C1
The melting point of the first is higher: 160 to 162 °C for the first, 122 to 124 °C for the second.

Compared with `Cn1cncc1C(N)(c1ccc(Cl)cc1)c1ccc2c(c1)C(c1cccc(Cl)c1)=NCc1nnnn1-2` (stereo unspecified), `O=C(NNS(=O)(=O)c1c(Cl)cccc1Cl)c1ccc2oc3ccccc3c2c1` is lower in melting point: 218 °C for the first, 202 to 203 °C for the second.

First: N#CCc1cc(Br)cc(Cc2nc3c(F)c(F)cc(F)c3s2)c1
Second: CCCc1cccn2c(=O)c(-c3nnn[nH]3)cnc12
The melting point of the first is lower: 119 to 124 °C for the first, 269 to 272 °C for the second.

Compared with `CC1(C)Cc2cccc(OCCCBr)c2O1`, `Clc1ccc(CN2CCN(CCN3CCCCC3)CC2c2ccccc2)cc1` (stereo unspecified) is higher in melting point: 54 to 56 °C for the first, 85 to 87 °C for the second.

Work on `NC(=O)c1nc(Cl)sc1Cl` yielded a melting point of 153 °C.
